Source: patent US11560371B2, “Cereblon binding compounds, compositions thereof, and methods of treatment therewith” (Celgene Corporation, priority 2020, dated 2023)

Target: T1, AR (Homo sapiens, UniProt P10275)
T1 construct: endogenous in cells; host or cells: VCaP cells
T1 sequence (P10275 1-920): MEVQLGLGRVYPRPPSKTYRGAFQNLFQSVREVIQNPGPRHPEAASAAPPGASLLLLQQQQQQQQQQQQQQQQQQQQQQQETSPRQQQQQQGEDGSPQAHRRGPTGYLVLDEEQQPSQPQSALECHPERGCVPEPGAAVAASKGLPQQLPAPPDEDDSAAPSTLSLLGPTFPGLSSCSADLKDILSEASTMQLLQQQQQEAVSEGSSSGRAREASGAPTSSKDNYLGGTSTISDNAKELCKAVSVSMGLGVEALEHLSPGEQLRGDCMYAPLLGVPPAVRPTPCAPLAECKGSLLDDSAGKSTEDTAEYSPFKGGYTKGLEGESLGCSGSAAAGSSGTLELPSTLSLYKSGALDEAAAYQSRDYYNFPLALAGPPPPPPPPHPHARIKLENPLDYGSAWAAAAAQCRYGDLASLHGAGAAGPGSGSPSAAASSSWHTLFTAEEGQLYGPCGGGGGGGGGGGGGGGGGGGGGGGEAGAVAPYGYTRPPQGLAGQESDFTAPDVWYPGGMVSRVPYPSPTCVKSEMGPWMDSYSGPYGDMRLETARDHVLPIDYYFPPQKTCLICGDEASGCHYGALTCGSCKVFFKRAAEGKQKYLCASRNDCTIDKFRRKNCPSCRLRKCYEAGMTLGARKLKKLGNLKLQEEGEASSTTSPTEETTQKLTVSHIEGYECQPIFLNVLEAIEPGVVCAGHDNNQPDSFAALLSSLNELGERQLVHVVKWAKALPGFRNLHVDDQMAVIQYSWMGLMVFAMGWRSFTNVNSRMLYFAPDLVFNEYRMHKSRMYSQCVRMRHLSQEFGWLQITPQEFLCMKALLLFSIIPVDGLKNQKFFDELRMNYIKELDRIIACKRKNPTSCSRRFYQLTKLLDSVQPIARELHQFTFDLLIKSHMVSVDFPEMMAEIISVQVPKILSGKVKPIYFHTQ
Assay: VCAP AR Degradation Assay
Assay type: cell-based
Conditions: VCaP cells, 24 h, AR ELISA; for DC50: concentration of compound when AR level = 50% of DMSO control (50% AR degradation); for Y: lowest measured AR level normalized to DMSO control (AR degradation efficiency)
Experimental: VCAP AR Degradation Assay. Test compounds were pre-dispensed into a Corning CellBind 96-well clear bottom plate (Cat #3300) using an acoustic dispenser to make a 10-point concentration series at 1:3 dilution for each compound. The final top concentration of each compound was 5 μM. DMSO at a final concentration of 0.1% was used as a control. VCaP cells cultured in DMEM with 8% fetal bovine serum (FBS) were seeded at 50K cells per well in a 200 μL volume into the compound plate and incubated at 37° C. in a CO2 incubator for 24 h. The medium was carefully removed from the cells and the plate was placed on ice. […] ice-cold 1× cell lysis buffer from Cell Signaling Technologies (Cat #9803) was added to each well of the cells and the plate was incubated at 4° C. on a shaker for 1 h. Fifteen μL of cell lysate was used for AR ELISA detection using a PathScan Total Sandwich AR ELISA kit (Cell Signaling Technology, Cat #12580). AR levels in compound-treated wells were normalized to that of DMSO control and expressed as percent of control (PoC) (y). A Four Parameter Logistic Model (Sigmoidal Dose-Response Model) was used to determine the compound's DC50, and EC50, using the following equation: y=(A+((B−A)/(1+((C/x)^D)))) • A=YMin (lowest AR level normalized to DMSO control in response to compound treatment, as determined by curve fit) • B=YMax (maximum AR level as determined by curve fit) • C=EC50 • D=Hill Slope • x=compound concentration • EC50=the concentration of compound when y=[…] • DC50=the concentration of the compound when y=50% of DMSO control (50% AR degradation) • y=AR protein level normalized to DMSO control
The lowest measured AR level normalized to DMSO control in response to compound treatment, termed Y value, was used to characterize the compound-mediated AR degradation efficiency.

Row | SMILES | DC50 | Y
1 | C[C@@H]1C[C@@H](CCOC2CCC(N3C(=S)N(c4cnc(C#N)c(C(F)(F)F)c4)C(=O)C3(C)C)CC2)C[C@H](C)N1CC(=O)Nc1cccc2c(N3CCC(=O)NC3=O)nn(C)c12 (stereo partly drawn) [Cmpd 25, 2-((2R,4s,6S)-4-(2-(((trans)-4-(3-(6-Cyano-5-(trifluoromethyl)pyridin-3-yl)-5,5-dimethyl-4-oxo-2-thioxoimidazolidin-1-yl)cyclohexyl)oxy)ethyl)-2,6-dimethylpiperidin-1-yl)-N-(3-(2,4-dioxotetrahydropyrimidin-1(2H)-yl)-1-methyl-1H-indazol-7-yl)acetamide] | ≤ 2 nM | * (0<Y≤20%)
2 | Cn1nc(N2CCC(=O)NC2=O)c2cccc(NC(=O)CN3CCN(CCCO[C@H]4CC[C@H](N5C(=S)N(c6ccc(C#N)c(C(F)(F)F)c6)C(=O)C5(C)C)CC4)C[C@@H]3C(F)(F)F)c21 [Cmpd 26, 2-((R)-4-(3-(((trans)-4-(3-(4-Cyano-3-(trifluoromethyl)phenyl)-5,5-dimethyl-4-oxo-2-thioxoimidazolidin-1-yl)cyclohexyl)oxy)propyl)-2-(trifluoromethyl)piperazin-1-yl)-N-(3-(2,4-dioxotetrahydropyrimidin-1(2H)-yl)-1-methyl-1H-indazol-7-yl)acetamide] | 2 to 10 nM | * (0<Y≤20%)
3 | Cn1nc(N2CCC(=O)NC2=O)c2cccc(NC(=O)CN3CCN(CCO[C@H]4CC[C@H](N5C(=S)N(c6cnc(C#N)c(C(F)(F)F)c6)C(=O)C5(C)C)CC4)C[C@@H]3C(F)(F)F)c21 [Cmpd 27, 2-((R)-4-(2-(((trans)-4-(3-(6-Cyano-5-(trifluoromethyl)pyridin-3-yl)-5,5-dimethyl-4-oxo-2-thioxoimidazolidin-1-yl)cyclohexyl)oxy)ethyl)-2-(trifluoromethyl)piperazin-1-yl)-N-(3-(2,4-dioxotetrahydropyrimidin-1(2H)-yl)-1-methyl-1H-indazol-7-yl)acetamide] | ≤ 2 nM | ** (20%<Y≤%)
4 | C[C@@H]1C[C@H](OCCC[C@H]2CC[C@H](N3C(=S)N(c4ccc(C#N)c(C(F)(F)F)c4)C(=O)C3(C)C)CC2)C[C@H](C)N1CC(=O)Nc1cccc2c(N3CCC(=O)NC3=O)nn(C)c12 [Cmpd 29, 2-((2R,4r,6S)-4-(3-((trans)-4-(3-(4-Cyano-3-(trifluoromethyl)phenyl)-5,5-dimethyl-4-oxo-2-thioxoimidazolidin-1-yl)cyclohexyl)propoxy)-2,6-dimethylpiperidin-1-yl)-N-(3-(2,4-dioxotetrahydropyrimidin-1(2H)-yl)-1-methyl-1H-indazol-7-yl)acetamide] | 10 to 100 nM | * (0<Y≤20%)
5 | C[C@@H]1C[C@H](OCC[C@H]2CC[C@H](N3C(=S)N(c4ccc(C#N)c(C(F)(F)F)c4)C(=O)C3(C)C)CC2)C[C@H](C)N1CC(=O)Nc1cccc2c(N3CCC(=O)NC3=O)nn(C)c12 [Cmpd 31, 2-((2R,4r,6S)-4-(2-((trans)-4-(3-(4-Cyano-3-(trifluoromethyl)phenyl)-5,5-dimethyl-4-oxo-2-thioxoimidazolidin-1-yl)cyclohexyl)ethoxy)-2,6-dimethylpiperidin-1-yl)-N-(3-(2,4-dioxotetrahydropyrimidin-1(2H)-yl)-1-methyl-1H-indazol-7-yl)acetamide] | 2 to 10 nM | ** (20%<Y≤%)
6 | C[C@@H]1C[C@H](OCCO[C@H]2CC[C@H](N3C(=S)N(c4ccc(C#N)c(C(F)(F)F)c4)C(=O)C3(C)C)CC2)C[C@H](C)N1CC(=O)Nc1cccc2c(N3CCC(=O)NC3=O)nn(C)c12 [Cmpd 33, 2-((2R,4r,6S)-4-(2-(((trans)-4-(3-(4-Cyano-3-(trifluoromethyl)phenyl)-5,5-dimethyl-4-oxo-2-thioxoimidazolidin-1-yl)cyclohexyl)oxy)ethoxy)-2,6-dimethylpiperidin-1-yl)-N-(3-(2,4-dioxotetrahydropyrimidin-1(2H)-yl)-1-methyl-1H-indazol-7-yl)acetamide] | 2 to 10 nM | ** (20%<Y≤%)
7 | C[C@@H]1C[C@H](OCCO[C@H]2CC[C@H](N3C(=S)N(c4cnc(C#N)c(C(F)(F)F)c4)C(=O)C3(C)C)CC2)C[C@H](C)N1CC(=O)Nc1cccc2c(N3CCC(=O)NC3=O)nn(C)c12 [Cmpd 34, 2-((2R,4r,6S)-4-(2-(((trans)-4-(3-(6-Cyano-5-(trifluoromethyl)pyridin-3-yl)-5,5-dimethyl-4-oxo-2-thioxoimidazolidin-1-yl)cyclohexyl)oxy)ethoxy)-2,6-dimethylpiperidin-1-yl)-N-(3-(2,4-dioxotetrahydropyrimidin-1(2H)-yl)-1-methyl-1H-indazol-7-yl)acetamide] | ≤ 2 nM | ** (20%<Y≤%)

Next, values leading:

Row | DC50 | Y | SMILES
8 | ≤ 2 nM | * (0<Y≤20%) | Cn1nc(N2CCC(=O)NC2=O)c2cccc(NC(=O)CN3CCN(CCCO[C@H]4CC[C@H](N5C(=S)N(c6cnc(C#N)c(C(F)(F)F)c6)C(=O)C5(C)C)CC4)C[C@@H]3C(F)(F)F)c21 [Cmpd 24, 2-((R)-4-(3-(((trans)-4-(3-(6-cyano-5-(trifluoromethyl)pyridin-3-yl)-5,5-dimethyl-4-oxo-2-thioxoimidazolidin-1-yl)cyclohexyl)oxy)propyl)-2-(trifluoromethyl)piperazin-1-yl)-N-(3-(2,4-dioxotetrahydropyrimidin-1(2H)-yl)-1-methyl-1H-indazol-7-yl)acetamide]
9 | ≤ 2 nM | * (0<Y≤20%) | C[C@@H]1C[C@H](CCO[C@H]2CC[C@H](N3C(=S)N(c4cnc(C#N)c(C(F)(F)F)c4)C(=O)C3(C)C)CC2)C[C@H](C)N1CC(=O)Nc1cccc2c(N3CCC(=O)NC3=O)nn(C)c12 [Cmpd 28, 2-((2R,4r,6S)-4-(2-(((trans)-4-(3-(6-Cyano-5-(trifluoromethyl)pyridin-3-yl)-5,5-dimethyl-4-oxo-2-thioxoimidazolidin-1-yl)cyclohexyl)oxy)ethyl)-2,6-dimethylpiperidin-1-yl)-N-(3-(2,4-dioxotetrahydropyrimidin-1(2H)-yl)-1-methyl-1H-indazol-7-yl)acetamide]
10 | 2 to 10 nM | * (0<Y≤20%) | C[C@@H]1C[C@H](OCCC[C@H]2CC[C@H](N3C(=S)N(c4cnc(C#N)c(C(F)(F)F)c4)C(=O)C3(C)C)CC2)C[C@H](C)N1CC(=O)Nc1cccc2c(N3CCC(=O)NC3=O)nn(C)c12 [Cmpd 30, 2-((2R,4r,6S)-4-(3-((trans)-4-(3-(6-Cyano-5-(trifluoromethyl)pyridin-3-yl)-5,5-dimethyl-4-oxo-2-thioxoimidazolidin-1-yl)cyclohexyl)propoxy)-2,6-dimethylpiperidin-1-yl)-N-(3-(2,4-dioxotetrahydropyrimidin-1(2H)-yl)-1-methyl-1H-indazol-7-yl)acetamide]
11 | 2 to 10 nM | * (0<Y≤20%) | C[C@@H]1C[C@H](OCC[C@H]2CC[C@H](N3C(=S)N(c4cnc(C#N)c(C(F)(F)F)c4)C(=O)C3(C)C)CC2)C[C@H](C)N1CC(=O)Nc1cccc2c(N3CCC(=O)NC3=O)nn(C)c12 [Cmpd 32, 2-((2R,4r,6S)-4-(2-((trans)-4-(3-(6-Cyano-5-(trifluoromethyl)pyridin-3-yl)-5,5-dimethyl-4-oxo-2-thioxoimidazolidin-1-yl)cyclohexyl)ethoxy)-2,6-dimethylpiperidin-1-yl)-N-(3-(2,4-dioxotetrahydropyrimidin-1(2H)-yl)-1-methyl-1H-indazol-7-yl)acetamide]
